Laboratory results: patent US8192962B2, “Processes for detecting toxic substances” (Daikin Industries, Ltd., priority 2001, dated 2012)

Tested on: Stress protein genes
Test: DNA chip mRNA expression in yeast, stress protein genes (Table 6)
Format: cell-based, Saccharomyces cerevisiae S288C
Method: Yeast (Saccharomyces cerevisiae S288C (α SUC2mal mel gap2 CUP1)) were incubated at 25° C. on YPD medium (yeast extract 1%, polypepton 2%, glucose 2%). One of toxic chemical substances was added to the cells at logarithmic growth phase, and the cells were further incubated for two hours. Cells were cultured without any chemical substance in the same condition, and were used as control. Concentrations of the chemical substances were defined to inhibit the growth of the yeast but not lead to death.
After completion of the incubation, the culture was centrifuged to collect the cells. To the cells, sodium acetate buffer (50 mM sodium acetate, 10 mM EDTA, 1% SDS) was added, and the mixture was shaken at 65° C. for five minutes, followed by returning to room temperature, and obtaining the supernatant, of which the procedures were repeated two times. To the supernatant, ½ amount of a solution of phenol/chloroform was added, and the mixture was centrifuged to give a supernatant, which was added with an equal amount of chloroform, and the mixture was centrifuged to give a supernatant. To the supernatant, an equal amount of isopropanol containing 0.3 M sodium acetate was added, and the mixture was allowed to stand at room temperature for 30 minutes, after which the mixture was centrifuged to give a sediment of the whole RNAs. Seventy % ethanol was added to the sediment, and the mixture was again centrifuged to give a sediment, which was then dried and dissolved in water. mRNA was isolated from the whole RNAs as followings. In view of the fact that a poly A chain is attached to the 3′ terminus of mRNA, a polynucleotide having a poly T structure which was immobilized on the surface of latex beads was used to trap the mRNA, and then the mRNA was washed and eluted with spine column (Oligotex-dT30<Super>mRNA Purification Kit, Takara). Reverse transcription of the mRNA was conducted with a reverse transcriptase (Super Script II Reverse Transcriptase; catalogue No. 18064-014, GibcoBRL) using fluorescence-labeled nucleotides to give cDNAs that were introduced with Cy3-dUTP or Cy5-dUTP during the reverse transcription.
The labeled cDNAs were dissolved in TE buffer (10mM Tris-HCl/1 mM EDTA, pH8.0), and the solution was dropped on the DNA chip containing the whole genes of yeast (DNA Chip Research Inc. Japan) so that the cDNAs were hybridized on the DNA chip at 65° C. for over 12 hours. The fluoresces intensity of the DNA chip was read with a scanner, and the ratio relative to the fluorescence intensity resulting from the absence of chemical substance was estimated as the following, which is shown in Tables 1 to 9: […]

[Cl][Cd][Cl] [(2), CdCl2]
The level of expressed mRNA in the presence of chemical substance/The level of expressed mRNA in the absence of chemical substance (yeast gene YIL033C): 1.3
The level of expressed mRNA in the presence of chemical substance/The level of expressed mRNA in the absence of chemical substance (yeast gene YIR037W): 2.2
The level of expressed mRNA in the presence of chemical substance/The level of expressed mRNA in the absence of chemical substance (yeast gene YIR038C): 3.5
The level of expressed mRNA in the presence of chemical substance/The level of expressed mRNA in the absence of chemical substance (yeast gene YJL128C): 1.4
The level of expressed mRNA in the presence of chemical substance/The level of expressed mRNA in the absence of chemical substance (yeast gene YJL158C): 0.6
The level of expressed mRNA in the presence of chemical substance/The level of expressed mRNA in the absence of chemical substance (yeast gene YJL159W): 1.3
The level of expressed mRNA in the presence of chemical substance/The level of expressed mRNA in the absence of chemical substance (yeast gene YJL165C): 0.8
The level of expressed mRNA in the presence of chemical substance/The level of expressed mRNA in the absence of chemical substance (yeast gene YJR045C): 1.9
The level of expressed mRNA in the presence of chemical substance/The level of expressed mRNA in the absence of chemical substance (yeast gene YJR090C): 1.0
The level of expressed mRNA in the presence of chemical substance/The level of expressed mRNA in the absence of chemical substance (yeast gene YKL161C): 0.8
The level of expressed mRNA in the presence of chemical substance/The level of expressed mRNA in the absence of chemical substance (yeast gene YKL163W): 1.4
The level of expressed mRNA in the presence of chemical substance/The level of expressed mRNA in the absence of chemical substance (yeast gene YKL164C): 1.1
The level of expressed mRNA in the presence of chemical substance/The level of expressed mRNA in the absence of chemical substance (yeast gene YKL210W): 1.7
The level of expressed mRNA in the presence of chemical substance/The level of expressed mRNA in the absence of chemical substance (yeast gene YKR053C): 2.0
The level of expressed mRNA in the presence of chemical substance/The level of expressed mRNA in the absence of chemical substance (yeast gene YLL024C): 1.6
The level of expressed mRNA in the presence of chemical substance/The level of expressed mRNA in the absence of chemical substance (yeast gene YLL026W): 2.9
The level of expressed mRNA in the presence of chemical substance/The level of expressed mRNA in the absence of chemical substance (yeast gene YLL039C): 1.0
The level of expressed mRNA in the presence of chemical substance/The level of expressed mRNA in the absence of chemical substance (yeast gene YLL060C): 4.2
The level of expressed mRNA in the presence of chemical substance/The level of expressed mRNA in the absence of chemical substance (yeast gene YLR006C): 0.7
The level of expressed mRNA in the presence of chemical substance/The level of expressed mRNA in the absence of chemical substance (yeast gene YLR109W): 2.9
The level of expressed mRNA in the presence of chemical substance/The level of expressed mRNA in the absence of chemical substance (yeast gene YLR259C): 1.0
The level of expressed mRNA in the presence of chemical substance/The level of expressed mRNA in the absence of chemical substance (yeast gene YML007W): 0.8
The level of expressed mRNA in the presence of chemical substance/The level of expressed mRNA in the absence of chemical substance (yeast gene YML070W): 1.7
The level of expressed mRNA in the presence of chemical substance/The level of expressed mRNA in the absence of chemical substance (yeast gene YMR021C): 0.7
The level of expressed mRNA in the presence of chemical substance/The level of expressed mRNA in the absence of chemical substance (yeast gene YMR173W): 3.6
The level of expressed mRNA in the presence of chemical substance/The level of expressed mRNA in the absence of chemical substance (yeast gene YMR186W): 1.4
The level of expressed mRNA in the presence of chemical substance/The level of expressed mRNA in the absence of chemical substance (yeast gene YNL064C): 1.8
The level of expressed mRNA in the presence of chemical substance/The level of expressed mRNA in the absence of chemical substance (yeast gene YNL160W): 3.7
The level of expressed mRNA in the presence of chemical substance/The level of expressed mRNA in the absence of chemical substance (yeast gene YNL241C): 2.5
The level of expressed mRNA in the presence of chemical substance/The level of expressed mRNA in the absence of chemical substance (yeast gene YNR076W): 1.3
The level of expressed mRNA in the presence of chemical substance/The level of expressed mRNA in the absence of chemical substance (yeast gene YOL064C): 2.1
The level of expressed mRNA in the presence of chemical substance/The level of expressed mRNA in the absence of chemical substance (yeast gene YOL161C): 1.1
The level of expressed mRNA in the presence of chemical substance/The level of expressed mRNA in the absence of chemical substance (yeast gene YOR008C): 0.8
The level of expressed mRNA in the presence of chemical substance/The level of expressed mRNA in the absence of chemical substance (yeast gene YOR009W): 0.8
The level of expressed mRNA in the presence of chemical substance/The level of expressed mRNA in the absence of chemical substance (yeast gene YOR010C): 0.7
The level of expressed mRNA in the presence of chemical substance/The level of expressed mRNA in the absence of chemical substance (yeast gene YOR027W): 2.4
The level of expressed mRNA in the presence of chemical substance/The level of expressed mRNA in the absence of chemical substance (yeast gene YOR208W): 1.0
The level of expressed mRNA in the presence of chemical substance/The level of expressed mRNA in the absence of chemical substance (yeast gene YPL059W): 0.9
The level of expressed mRNA in the presence of chemical substance/The level of expressed mRNA in the absence of chemical substance (yeast gene YPL106C): 1.7
The level of expressed mRNA in the presence of chemical substance/The level of expressed mRNA in the absence of chemical substance (yeast gene YPL140C): 1.3
The level of expressed mRNA in the presence of chemical substance/The level of expressed mRNA in the absence of chemical substance (yeast gene YPL194W): 1.4
The level of expressed mRNA in the presence of chemical substance/The level of expressed mRNA in the absence of chemical substance (yeast gene YPL223C): 20.0
The level of expressed mRNA in the presence of chemical substance/The level of expressed mRNA in the absence of chemical substance (yeast gene YPL240C): 1.4
The level of expressed mRNA in the presence of chemical substance/The level of expressed mRNA in the absence of chemical substance (yeast gene YPR005C): 0.8
The level of expressed mRNA in the presence of chemical substance/The level of expressed mRNA in the absence of chemical substance (yeast gene YPR026W): 1.2
